# Measured values as given in PMC7774954, “Interactomic affinity profiling by holdup assay: Acetylation and distal residues impact the PDZome-binding specificity of PTEN phosphatase” (PLoS ONE, 2020).
# *1 amine or outer side, *2 acyl side, *3 side chain or, on linkers, in order; H or OH if unused. Where a SMILES comes first, the peptide text is derived from it. The star is where a group is joined. X1 = O=C(CCCC[C@@H]1SC[C@@H]2NC(=O)N[C@@H]21)NCCCOCCOCCOCCCN*; Suc = O=C(CCC(=O)[*:2])[*:1]
# Legend:
# MAST3 PDZ 1 = molecular target: T1, MAST3 PDZ 1 (Homo sapiens, UniProt O60307); assay: Holdup assay, MAST3-1; assay type: binding; details: for BI: MAST3-1
# T1 construct: made in house; host or cells: E. coli
# T1 sequence (O60307 950-1038 limits assumed): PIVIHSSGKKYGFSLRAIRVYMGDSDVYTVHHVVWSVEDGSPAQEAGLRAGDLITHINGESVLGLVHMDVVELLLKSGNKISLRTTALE
# Protocol: (§1) The holdup assay was performed on a Tecan freedom Evo200 robot with 384-well plates in singlicate for the three 11-mer PTEN variants and the 13-mer PTEN peptide as described in [31, 32]. Briefly, prior to interaction assay, 2.5 μL of streptavidin resin was saturated in each well with 20 μL of biotinylated PBM peptides (42 μM) and then washed twice with an excess of free biotin, while the reference resin was incubated only with biotin. Right before the holdup experiment, the PDZ library was spiked with an internal standard of lysozyme. Then, the biotin- or PBM-saturated resin was incubated, each in a distinct well of a 384-well plate, with complete cell lysates diluted so that the concentration of the tag-PDZ present in the crude extract is adjusted at 4 μM. After a sufficient time to reach complex equilibrium (15 min.), a fast and mild filtration step is performed and the tag-PDZ concentrations were measured by capillary electrophoresis instrument (LabChip GXII, PerkinElmer, Massachusets, USA). Standard markers were used to convert migration time into molecular weight on the LabChip software and inappropriate molecular weight markers were corrected or excluded.
# (§2) For filtered data, the BI was extracted with the following equation (Eq 1) that estimates the depleted fraction after superimposition of the sample and reference electropherograms: BI=Iref−Ilig/Iref (1) where Iref and Ilig are the intensities of the tag-PDZ peaks measured, for each PDZ domain/PBM peptide interaction pair, in the biotin reference and the PBM electropherograms, respectively.
# BIs were transformed into dissociation constants (KD) using the following formula: KD=([PDZtot]−BI·[PDZtot])·([PBMtot]−BI·[PDZtot])/BI·[PDZtot] (2) where [PDZtot] and [PBMtot] correspond to the total concentrations of the PDZ domain (usually around 4 μM) and the PBM peptide used during the assay. Since the PBMtot concentration in the resin during the holdup assay parameter may differ from one peptide to another and remains unknown, it is impossible to directly convert BI values into KD constants. We systematically determined the KD constants for a subset of PDZ/PBM pairs by competitive FP. […] For each PBM, the average peptide concentration was calculated after outlier rejection based on the absolute distances from the median as compared to three times the standard deviation (3σ rule), with never more than 2 values rejected.
# HTRA1-1 = molecular target: T2, HTRA1-1 (Homo sapiens, UniProt Q92743); assay: Holdup assay, HTRA1-1; assay type: binding
# T2 construct: His-MBP or His-TRX (N); made in house; host or cells: E. coli
# Protocol: as §1, §2
# DLG3-2 = molecular target: T3, DLG3-2 (Homo sapiens, UniProt Q92796); assay: Holdup assay, DLG3-2; assay type: binding
# T3 sequence (Q92796 244-330): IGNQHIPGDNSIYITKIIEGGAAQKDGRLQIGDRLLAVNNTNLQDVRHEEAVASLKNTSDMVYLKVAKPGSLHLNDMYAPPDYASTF
# DVL1-1 = assay: Holdup assay, DVL1-1; assay type: binding, human
# FRMPD1-1 = assay: Holdup assay, FRMPD1-1; assay type: binding, human
# FRMPD2-2 = molecular target: T4, FRMPD2-2 (Homo sapiens, UniProt Q68DX3); assay: Holdup assay, FRMPD2-2; assay type: binding
# T4 sequence (Q68DX3 1-1309): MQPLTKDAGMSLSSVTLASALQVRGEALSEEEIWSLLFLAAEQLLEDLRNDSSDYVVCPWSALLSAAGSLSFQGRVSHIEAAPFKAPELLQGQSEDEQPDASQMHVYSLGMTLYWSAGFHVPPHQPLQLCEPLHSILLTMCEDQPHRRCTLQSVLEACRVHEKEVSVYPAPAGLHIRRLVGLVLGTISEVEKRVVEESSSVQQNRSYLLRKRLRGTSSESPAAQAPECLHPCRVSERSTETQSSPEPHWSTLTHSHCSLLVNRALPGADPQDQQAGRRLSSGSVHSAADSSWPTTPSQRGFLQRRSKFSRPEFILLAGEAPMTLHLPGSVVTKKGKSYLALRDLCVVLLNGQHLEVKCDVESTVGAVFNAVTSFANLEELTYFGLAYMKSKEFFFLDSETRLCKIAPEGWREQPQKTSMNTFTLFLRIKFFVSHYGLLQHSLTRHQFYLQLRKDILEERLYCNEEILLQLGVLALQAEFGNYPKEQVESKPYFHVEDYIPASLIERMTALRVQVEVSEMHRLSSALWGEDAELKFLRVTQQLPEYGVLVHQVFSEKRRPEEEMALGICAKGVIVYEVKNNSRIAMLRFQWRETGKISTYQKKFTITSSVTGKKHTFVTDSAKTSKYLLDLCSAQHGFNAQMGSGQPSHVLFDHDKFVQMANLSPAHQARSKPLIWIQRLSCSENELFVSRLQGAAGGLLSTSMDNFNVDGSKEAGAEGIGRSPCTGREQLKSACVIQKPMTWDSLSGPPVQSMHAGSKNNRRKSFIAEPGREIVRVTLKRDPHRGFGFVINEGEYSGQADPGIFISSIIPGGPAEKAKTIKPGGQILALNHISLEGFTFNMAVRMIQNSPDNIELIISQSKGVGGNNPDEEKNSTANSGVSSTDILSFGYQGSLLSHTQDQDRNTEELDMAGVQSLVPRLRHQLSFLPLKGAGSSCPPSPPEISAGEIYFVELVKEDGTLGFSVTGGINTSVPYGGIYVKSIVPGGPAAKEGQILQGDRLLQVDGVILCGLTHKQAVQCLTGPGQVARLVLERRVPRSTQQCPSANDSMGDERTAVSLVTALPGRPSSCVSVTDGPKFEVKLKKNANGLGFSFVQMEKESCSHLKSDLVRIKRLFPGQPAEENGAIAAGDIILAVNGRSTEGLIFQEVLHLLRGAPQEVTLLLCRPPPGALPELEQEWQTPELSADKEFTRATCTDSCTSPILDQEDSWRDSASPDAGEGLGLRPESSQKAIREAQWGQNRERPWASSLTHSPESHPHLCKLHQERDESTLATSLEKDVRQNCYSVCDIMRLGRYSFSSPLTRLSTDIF
# GRIP1-1 = assay: Holdup assay, GRIP1-1; assay type: binding, human
# INADL-6 = INADL-6 (Homo sapiens, UniProt Q8NI35); assay: Holdup assay, INADL-6; assay type: binding
# MAGI3-1 = assay: Holdup assay, MAGI3-1; assay type: binding, human
# MLLT4-1 = assay: Holdup assay, MLLT4-1; assay type: binding, human
# T2 sequence (Q92743 365-467 limits assumed): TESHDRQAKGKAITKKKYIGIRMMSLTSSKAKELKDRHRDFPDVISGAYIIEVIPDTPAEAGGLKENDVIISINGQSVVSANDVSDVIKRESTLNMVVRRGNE
# INADL-6, sequence (Q8NI35 whole entry): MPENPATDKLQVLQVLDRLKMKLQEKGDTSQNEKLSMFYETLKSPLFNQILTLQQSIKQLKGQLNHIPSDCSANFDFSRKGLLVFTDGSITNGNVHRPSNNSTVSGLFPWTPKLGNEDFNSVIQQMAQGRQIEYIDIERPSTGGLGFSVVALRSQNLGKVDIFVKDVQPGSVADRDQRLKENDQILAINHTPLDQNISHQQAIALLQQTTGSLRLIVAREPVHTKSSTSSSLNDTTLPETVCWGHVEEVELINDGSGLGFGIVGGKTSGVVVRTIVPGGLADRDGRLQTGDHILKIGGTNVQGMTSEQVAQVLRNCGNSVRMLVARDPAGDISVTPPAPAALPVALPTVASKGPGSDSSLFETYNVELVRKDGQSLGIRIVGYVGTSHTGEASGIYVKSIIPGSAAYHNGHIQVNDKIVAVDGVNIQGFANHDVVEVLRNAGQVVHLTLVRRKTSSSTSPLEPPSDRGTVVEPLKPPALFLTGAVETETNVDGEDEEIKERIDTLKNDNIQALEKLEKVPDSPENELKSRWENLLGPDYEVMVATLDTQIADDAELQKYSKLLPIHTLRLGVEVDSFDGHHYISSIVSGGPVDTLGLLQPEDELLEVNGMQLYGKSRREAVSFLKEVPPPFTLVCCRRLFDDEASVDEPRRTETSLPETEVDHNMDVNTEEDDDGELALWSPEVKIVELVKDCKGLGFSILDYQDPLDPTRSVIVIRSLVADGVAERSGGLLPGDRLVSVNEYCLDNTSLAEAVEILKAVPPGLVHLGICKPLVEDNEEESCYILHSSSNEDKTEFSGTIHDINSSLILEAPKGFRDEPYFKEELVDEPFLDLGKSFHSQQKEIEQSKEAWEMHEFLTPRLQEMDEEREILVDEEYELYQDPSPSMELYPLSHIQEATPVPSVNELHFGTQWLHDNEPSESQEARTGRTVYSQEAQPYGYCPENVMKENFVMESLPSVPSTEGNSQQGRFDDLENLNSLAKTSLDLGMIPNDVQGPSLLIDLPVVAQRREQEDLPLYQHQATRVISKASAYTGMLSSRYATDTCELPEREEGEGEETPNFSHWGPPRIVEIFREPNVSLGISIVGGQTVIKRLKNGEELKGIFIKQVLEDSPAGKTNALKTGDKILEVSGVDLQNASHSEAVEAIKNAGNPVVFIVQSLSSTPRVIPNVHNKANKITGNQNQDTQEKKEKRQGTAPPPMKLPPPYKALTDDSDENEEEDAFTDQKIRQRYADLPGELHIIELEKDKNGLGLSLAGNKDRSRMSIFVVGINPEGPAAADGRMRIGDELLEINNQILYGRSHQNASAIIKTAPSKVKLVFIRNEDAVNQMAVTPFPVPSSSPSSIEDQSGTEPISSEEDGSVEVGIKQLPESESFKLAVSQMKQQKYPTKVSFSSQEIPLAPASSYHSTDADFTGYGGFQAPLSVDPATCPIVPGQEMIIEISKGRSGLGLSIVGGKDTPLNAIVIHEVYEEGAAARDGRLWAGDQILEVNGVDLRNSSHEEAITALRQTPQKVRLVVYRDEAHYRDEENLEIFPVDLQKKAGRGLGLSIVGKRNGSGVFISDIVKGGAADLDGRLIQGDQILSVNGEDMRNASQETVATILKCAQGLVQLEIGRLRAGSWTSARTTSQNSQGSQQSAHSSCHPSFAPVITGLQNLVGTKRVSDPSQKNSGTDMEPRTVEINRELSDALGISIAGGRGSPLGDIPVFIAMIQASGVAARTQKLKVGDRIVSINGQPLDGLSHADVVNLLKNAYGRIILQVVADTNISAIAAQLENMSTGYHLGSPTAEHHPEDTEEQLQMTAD
Compound,BI (MAST3 PDZ 1),Kd (HTRA1-1) [µM],BI (HTRA1-1; HTRA1-1),BI (DLG3-2),BI (DVL1-1),LogKD (DVL1-1),BI (FRMPD1-1),LogKD (FRMPD1-1),BI (FRMPD2-2),Kd (FRMPD2-2) [µM],BI (GRIP1-1),LogKD (GRIP1-1),BI (INADL-6),LogKD (INADL-6),BI (MAGI3-1),LogKD (MAGI3-1),BI (MLLT4-1),LogKD (MLLT4-1),Kd (MAST3 PDZ 1) [µM],Kd (DLG3-2) [µM],further results
CC[C@H](C)[C@H](NC(=O)[C@H](CCC(N)=O)NC(=O)[C@@H](NC(=O)[C@H](Cc1c[nH]cn1)NC(=O)[C@H](CCC(N)=O)NC(=O)[C@H](CC(=O)O)NC(=O)[C@H](CCC(=O)O)NC(=O)[C@H](CC(=O)O)NC(=O)CCC(=O)NCCCOCCOCCOCCCNC(=O)CCCC[C@@H]1SC[C@@H]2NC(=O)N[C@@H]21)[C@@H](C)O)C(=O)N[C@H](C(=O)N[C@@H](CCCCN)C(=O)N[C@H](C(=O)O)C(C)C)[C@@H](C)O [PTEN_11],0.122,47.6,0.405,0.13,-0.007,3.519,0.017,3.519,0.291,80,-0.021,3.519,0.077,3.519,-0.011,3.519,-0.038,3.519,–,–,"BI (binding intensity) (HTRA1-1; HTRA1-1, holdup, singlicate): 0.41"
CC[C@H](C)[C@H](NC(=O)[C@H](CCC(N)=O)NC(=O)[C@@H](NC(=O)[C@H](Cc1c[nH]cn1)NC(=O)[C@H](CCC(N)=O)NC(=O)[C@H](CC(=O)O)NC(=O)[C@H](CCC(=O)O)NC(=O)[C@H](CC(=O)O)NC(=O)CCC(=O)NCCCOCCOCCOCCCNC(=O)CCCC[C@@H]1SC[C@@H]2NC(=O)N[C@@H]21)[C@@H](C)O)C(=O)N[C@H](C(=O)N[C@@H](CCCCNC(C)=O)C(=O)N[C@H](C(=O)O)C(C)C)[C@@H](C)O [PTEN_Ac],0.242,10.2,0.712,0.445,-0.016,3.605,-0.03,3.605,0.574,19.1,–,–,0.316,–,–,–,–,–,84.7,32.7,Kd (INADL-6): 57.9 µM
CC[C@H](C)[C@H](NC(=O)[C@H](CCC(N)=O)NC(=O)[C@@H](NC(=O)[C@H](Cc1c[nH]cn1)NC(=O)[C@H](CCC(N)=O)NC(=O)[C@H](CC(=O)O)NC(=O)[C@H](CCC(=O)O)NC(=O)[C@H](CC(=O)O)NC(=O)CCC(=O)NCCCOCCOCCOCCCNC(=O)CCCC[C@@H]1SC[C@@H]2NC(=O)N[C@@H]21)[C@@H](C)O)C(=O)N[C@H](C(=O)N[C@@H](CCCNC(=N)N)C(=O)N[C@H](C(=O)O)C(C)C)[C@@H](C)O [PTEN_KR] ({X1-Suc}-DEDQHTQITRV-OH),0.228,40.4,0.368,0.277,-0.056,3.655,-0.047,3.655,0.295,56.9,-0.163,3.655,0.066,3.655,-0.004,3.655,0.021,3.655,81.6,62.4,–
CC[C@H](C)[C@H](NC(=O)[C@H](CCC(N)=O)NC(=O)[C@@H](NC(=O)[C@H](Cc1c[nH]cn1)NC(=O)[C@H](CCC(N)=O)NC(=O)[C@H](CC(=O)O)NC(=O)[C@H](CCC(=O)O)NC(=O)[C@H](CC(=O)O)NC(=O)[C@H](Cc1ccccc1)NC(=O)[C@@H]1CCCN1C(=O)CCC(=O)NCCCOCCOCCOCCCNC(=O)CCCC[C@@H]1SC[C@@H]2NC(=O)N[C@@H]21)[C@@H](C)O)C(=O)N[C@H](C(=O)N[C@@H](CCCCN)C(=O)N[C@H](C(=O)O)C(C)C)[C@@H](C)O [PTEN_13] ({X1-Suc}-PFDEDQHTQITKV-OH),-0.161,52.3,0.235,0.089,-0.013,–,0.081,–,0.254,46.9,-0.079,–,0.044,3.826,-0.006,–,0.007,–,–,–,LogKD (DLG3-2): 3.826
